Laboratory results published in the supplement of paper PMC10307832.

Columns and labels:
Experiment in all cases: relative viability (nuclei count vs DMSO), 5 days (fraction); higher = more cells survive
[1] = compound: CS(=O)(=O)c1ccc(-c2cnc(N)c(C(=O)Nc3ccccc3)n2)cc1 [VE-821] + CS(=O)(=O)N1CCN(Cc2cc3nc(-c4cccc5[nH]ncc45)nc(N4CCOCC4)c3s2)CC1 [Pictilisib] (partner 1 µM)
Outline: (§1)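 Lung cancer cell lines in 1536-well plates were dosed by pin tool the day after seeding, either with one drug alone or with a fixed anchor-drug dose plus five library-drug doses (not always all listed) in √10 steps. After 5 days, cells were fixed and their nuclei stained in one step (final 0.05% Triton X-100, 1% formaldehyde, 1 ug/ml Hoechst), then counted on 4× images. Relative viability is the nuclei count in treated wells divided by that in vehicle wells. Values are medians of duplicate plates.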

[2] = compound: CS(=O)(=O)c1ccc(-c2cnc(N)c(C(=O)Nc3ccccc3)n2)cc1 [VE-821] + Nc1ncn([C@H]2C[C@H](O)[C@@H](CO)O2)c(=O)n1 [Decitabine] (partner 2 µM)
Outline: as §1

[3] = compound: CS(=O)(=O)c1ccc(C(=O)Nc2ccc(Cl)c(-c3ccccn3)c2)c(Cl)c1 [Vismodegib] + CS(=O)(=O)N1CCN(Cc2cc3nc(-c4cccc5[nH]ncc45)nc(N4CCOCC4)c3s2)CC1 [Pictilisib] (partner 1 µM)
Outline: as §1

[4] = compound: N#CC[C@H](C1CCCC1)n1cc(-c2ncnc3[nH]ccc23)cn1 [Ruxolitinib] + CS(=O)(=O)N1CCN(Cc2cc3nc(-c4cccc5[nH]ncc45)nc(N4CCOCC4)c3s2)CC1 [Pictilisib] (partner 1 µM)
Outline: as §1

| Cell Line | relative viability ([1]; first compound 0.08 µM) | relative viability ([1]; first compound 0.253 µM) | relative viability ([1]; first compound 0.8 µM) | relative viability ([1]; first compound 2.53 µM) | relative viability ([1]; first compound 8 µM) | relative viability ([2]; first compound 0.08 µM) | relative viability ([2]; first compound 0.253 µM) | relative viability ([2]; first compound 0.8 µM) | relative viability ([2]; first compound 2.53 µM) | relative viability ([2]; first compound 8 µM) | relative viability ([3]; first compound 0.08 µM) | relative viability ([3]; first compound 0.253 µM) | relative viability ([3]; first compound 0.8 µM) | relative viability ([3]; first compound 2.53 µM) | relative viability ([3]; first compound 8 µM) | relative viability ([4]; first compound 0.253 µM) | relative viability ([4]; first compound 0.8 µM) | relative viability ([4]; first compound 2.53 µM) | relative viability ([4]; first compound 8 µM) | relative viability ([4]; first compound 0.08 µM) |
| --- | --- | --- | --- | --- | --- | --- | --- | --- | --- | --- | --- | --- | --- | --- | --- | --- | --- | --- | --- | --- |
| NCI-H1395 | 0.568 | 0.67 | 0.652 | 0.605 | 0.599 | 0.733 | 0.672 | 0.74 | 0.74 | 0.638 | 0.573 | 0.593 | 0.491 | 0.631 | 0.752 | 0.553 | 0.645 | 0.584 | 0.601 | – |
| NCI-H647 | 0.472 | 0.391 | – | 0.428 | 0.263 | 0.401 | 0.5 | 0.385 | 0.385 | 0.235 | – | 0.407 | 0.389 | 0.401 | 0.586 | 0.358 | 0.449 | 0.362 | 0.514 | – |
| NCI-H23 | 0.554 | 0.458 | 0.506 | 0.469 | 0.277 | 0.304 | 0.35 | 0.289 | 0.36 | 0.245 | 0.535 | 0.462 | 0.432 | 0.452 | 0.425 | 0.474 | 0.603 | 0.439 | 0.415 | 0.519 |
| H3255 | 0.583 | 0.553 | 0.549 | 0.454 | 0.568 | 0.655 | 0.551 | 0.614 | 0.752 | 0.596 | 0.483 | 0.481 | 0.479 | 0.471 | 0.471 | 0.435 | 0.516 | 0.427 | 0.48 | 0.206 |
| NCI-H1651 | 0.648 | 0.584 | 0.602 | 0.557 | 0.585 | 0.486 | 0.697 | 0.614 | 0.673 | 0.543 | 0.579 | 0.549 | 0.523 | 0.54 | 0.637 | 0.599 | 0.727 | 0.477 | 0.664 | 0.742 |
| NCI-H1734 | 0.453 | 0.47 | 0.433 | 0.527 | 0.36 | 0.585 | 0.473 | 0.515 | 0.522 | 0.448 | 0.429 | 0.446 | 0.429 | 0.469 | 0.512 | 0.417 | 0.435 | 0.37 | 0.468 | 0.479 |
| NCI-H1993 | 0.861 | 0.821 | 0.822 | 0.874 | 0.862 | 0.607 | 0.557 | 0.596 | 0.568 | 0.486 | 0.875 | 0.947 | 0.771 | 0.792 | 0.822 | 0.754 | 0.855 | 0.781 | 0.846 | 0.809 |
| NCI-H1755 | 0.509 | 0.359 | 0.416 | 0.418 | 0.363 | 0.734 | 0.754 | 0.866 | 0.867 | 0.831 | 0.43 | 0.406 | 0.471 | 0.448 | 0.449 | 0.43 | 0.469 | 0.329 | 0.297 | 0.425 |
| SK-LU-1 | 0.602 | 0.557 | 0.621 | 0.432 | 0.316 | 0.684 | 0.671 | 0.522 | 0.612 | 0.475 | 0.503 | 0.666 | 0.636 | 0.583 | 0.643 | 0.723 | 0.538 | 0.607 | 0.638 | 0.657 |
| NCI-H358 | 0.383 | 0.273 | 0.408 | 0.359 | 0.38 | 0.22 | 0.279 | 0.278 | 0.278 | 0.273 | 0.301 | 0.326 | 0.294 | 0.37 | 0.34 | 0.343 | 0.342 | 0.268 | 0.265 | 0.413 |
| NCI-H1793 | 0.356 | 0.312 | 0.273 | 0.431 | 0.425 | 0.55 | 0.468 | – | 0.637 | 0.461 | – | 0.413 | 0.411 | 0.367 | 0.325 | 0.409 | 0.25 | 0.38 | 0.282 | 0.311 |
| HCC-78 | 0.207 | 0.237 | 0.229 | 0.22 | 0.206 | 0.619 | 0.597 | 0.719 | 0.785 | 0.699 | 0.19 | 0.189 | 0.176 | 0.206 | 0.234 | 0.14 | 0.207 | 0.255 | 0.216 | 0.162 |
| ChaGo-K-1 | 0.705 | 0.712 | 0.927 | 0.797 | 0.339 | 0.55 | 0.493 | 0.506 | 0.537 | 0.559 | 0.784 | 0.851 | 0.623 | 0.666 | 0.709 | 0.555 | 0.668 | 0.776 | 0.727 | – |
| LCLC-97TM1 | 0.178 | 0.203 | 0.229 | 0.224 | 0.137 | 0.266 | 0.278 | 0.239 | 0.251 | 0.178 | – | – | 0.125 | – | 0.158 | 0.153 | 0.214 | 0.158 | 0.198 | 0.182 |
| NCI-H661 | 0.379 | 0.393 | 0.406 | 0.39 | 0.336 | 0.61 | 0.568 | 0.648 | 0.628 | 0.602 | 0.3 | 0.392 | 0.403 | 0.331 | 0.367 | 0.322 | 0.379 | – | 0.465 | 0.41 |
| NCI-H1944 | 0.364 | 0.325 | 0.348 | 0.339 | 0.294 | 0.418 | 0.408 | 0.418 | 0.438 | 0.343 | 0.354 | 0.349 | 0.308 | 0.327 | 0.345 | 0.334 | 0.381 | 0.323 | 0.332 | 0.362 |
| SW 1573 | 0.625 | 0.531 | 0.541 | 0.569 | 0.47 | 0.538 | 0.458 | 0.433 | 0.511 | 0.416 | 0.417 | 0.509 | 0.59 | 0.502 | 0.51 | 0.425 | 0.546 | 0.445 | 0.429 | 0.495 |
